Results reported in patent US20110059967A1, “THERAPEUTIC COMPOUNDS” (Allergan Inc., priority 2008, published 2011).
Entries after “also recorded” stand apart in the source; their conditions may differ.

Tested on: lashes and adjacent hairs
Test: Observation of lashes and adjacent hairs in glaucoma patients treated with bimatoprost in only one eye
Format: in vivo
Settings: glaucoma patients taking bimatoprost in only one eye
From the text: In the course of treating patients having glaucoma, treatment may only be appropriate in one eye. […] The lash appearance on the lids of the treated eyes would have appeared quite attractive if it represented a bilateral phenomenon. As a result of its asymmetric nature, the long lash'es on one side could be construed as disturbing from a cosmetic standpoint. A systemic examination was preformed as a result of the asymmetric phenomenon. It soon became apparent that this altered appearance was not an isolated finding. […] Definite differences could be identified to varying degrees in the lashes and adjacent hairs of all patients who were taking the drug on a unilateral basis for longer than 6 months.
The changes in the lashes were apparent on gross inspection in several patients once attention was focused on the issue. In those with light colored hair and lashes, the differences were only seen easily with the aid of the high magnification and lighting capabilities of the slit lamp biomicroscope. In the course of glaucoma follow-up examination, attention is generally immediately focused on the eye itself. As a result of the high power magnification needed only one eye is seen at a time and the eye is seen at a high enough power that the lashes are not in focus. […]

CCNC(=O)CCC/C=C\C[C@@H]1[C@@H](/C=C/[C@@H](O)CCc2ccccc2)[C@H](O)C[C@@H]1O [bimatoprost]
hair growth: lashes of the treated eye compared with the non-treated eye: longer, thicker, and fuller; also recorded: hair growth is stimulated
